{
  "source": "paper PMC12490239",
  "about": "“Combining BET inhibition with SMAC mimetics restricts tumor growth and triggers immune surveillance in preclinical cancer models” (Cell Reports Medicine, 2025)",
  "assay_in_all_cases": "cells",
  "design_in_all_cases": "CellTiter-Glo 2.0 luminescence proliferation/viability assay, single agents, human tumour cell line panel",
  "key": {"[1]": {"system": "HUTU80", "conditions": "Homo sapiens, HuTu80, 96 h; single agent; read-out: IC50 SMACm", "outline": "(§1)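 Human tumour cell lines were seeded into assay plates and held at 37°C with 5% CO2 for twenty-four hours, then exposed in triplicate to rising concentrations of the SMAC mimetic, from 4.5 nM to 10 μM, with DMSO as control. After 96 h, viability was read as CellTiter-Glo2.0 luminescence to derive single-agent IC50 values.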"}, "[2]": {"system": "LU-99", "conditions": "Homo sapiens, Lu-99, 96 h; single agent; read-out: IC50 SMACm", "outline": "as §1"}, "[3]": {"system": "SK-LU-1", "conditions": "Homo sapiens, SK-LU-1, 96 h; single agent; read-out: IC50 SMACm", "outline": "as §1"}, "[4]": {"system": "COCM1", "conditions": "CoCM-1, 96 h; single agent; read-out: IC50 SMACm", "outline": "as §1"}, "[5]": {"system": "AGS", "conditions": "Homo sapiens, AGS, 96 h; single agent; read-out: IC50 SMACm", "outline": "as §1"}, "[6]": {"system": "JVE207", "conditions": "96 h; single agent; read-out: IC50 SMACm", "outline": "as §1"}, "[7]": {"system": "Panc 04.03", "conditions": "Homo sapiens, Panc 04.03, 96 h; single agent; read-out: IC50 SMACm", "outline": "as §1"}, "[8]": {"system": "NCI-H1792", "conditions": "Homo sapiens, NCI-H1792, 96 h; single agent; read-out: IC50 SMACm", "outline": "as §1"}, "[9]": {"system": "NCI-H2087", "conditions": "Homo sapiens, NCI-H2087, 96 h; single agent; read-out: IC50 SMACm", "outline": "as §1"}, "[10]": {"system": "NUGC-3", "conditions": "Homo sapiens, NUGC-3, 96 h; single agent; read-out: IC50 SMACm", "outline": "as §1"}, "[11]": {"system": "KE-39", "conditions": "96 h; single agent; read-out: IC50 SMACm", "outline": "as §1"}, "[12]": {"system": "KM12SM", "conditions": "96 h; single agent; read-out: IC50 SMACm", "outline": "as §1"}, "[13]": {"system": "SW620", "conditions": "Homo sapiens, SW-620, 96 h; single agent; read-out: IC50 SMACm", "outline": "as §1"}, "[14]": {"system": "HARA", "conditions": "96 h; single agent; read-out: IC50 SMACm", "outline": "as §1"}, "[15]": {"system": "C106", "conditions": "96 h; single agent; read-out: IC50 SMACm", "outline": "as §1"}},
  "data": [
    {"smiles": "CN[C@@H](C)C(=O)Nc1ccc(-c2c(-c3cccnc3OC)nc3cc(C)ccn23)c(C#Cc2ccc3c(C)nccc3c2)n1", "note": "[SMACm, BI 891065]", "values": [
      {"measurement": "IC50", "setting": "[1]", "value": 1.36, "unit": "µM"},
      {"measurement": "IC50", "setting": "[2]", "value": 7.37, "unit": "µM"},
      {"measurement": "IC50", "setting": "[3]", "value": 0.495, "unit": "µM"},
      {"measurement": "IC50", "setting": "[4]", "value": 7.58, "unit": "µM"},
      {"measurement": "IC50", "setting": "[5]", "value": 4.06, "unit": "µM"},
      {"measurement": "IC50", "setting": "[6]", "value": 7.2, "unit": "µM"},
      {"measurement": "IC50", "setting": "[7]", "value": 4.68, "unit": "µM"},
      {"measurement": "IC50", "setting": "[8]", "value": 4.79, "unit": "µM"},
      {"measurement": "IC50", "setting": "[9]", "value": 5.05, "unit": "µM"},
      {"measurement": "IC50", "setting": "[10]", "value": 4.59, "unit": "µM"},
      {"measurement": "IC50", "setting": "[11]", "value": 3.86, "unit": "µM"},
      {"measurement": "IC50", "setting": "[12]", "value": 4.31, "unit": "µM"},
      {"measurement": "IC50", "setting": "[13]", "value": 4.46, "unit": "µM"},
      {"measurement": "IC50", "setting": "[14]", "value": 3.97, "unit": "µM"},
      {"measurement": "IC50", "setting": "[15]", "value": 1.6, "unit": "µM"}
    ]}
  ]
}
